From US20100093706A1, “MULTIMEDIATOR TRANSPORTER INHIBITORS FOR USE IN TREATMENT OF CENTRAL NERVOUS SYSTEM DISORDERS” (priority 2006, published 2010)

Tests used:
[1] = system: Sprague-Dawley rats; experiment: 7 day multidose oral dosing toxicology study; type: in vivo, rat
Excerpt: The representative results are listed below in Table VI.

[2] = target: DAT (r) (Rattus norvegicus, UniProt P23977); experiment: in vitro functional uptake, rat DAT; type: cell-based
[3] = target: NET (norepinephrine transporter or SLC6A2) (Homo sapiens, UniProt P23975); experiment: cell-based; details: own compounds tested as racemic mixtures of enriched diastereomers
NET (norepinephrine transporter or SLC6A2), sequence (P23975 whole entry): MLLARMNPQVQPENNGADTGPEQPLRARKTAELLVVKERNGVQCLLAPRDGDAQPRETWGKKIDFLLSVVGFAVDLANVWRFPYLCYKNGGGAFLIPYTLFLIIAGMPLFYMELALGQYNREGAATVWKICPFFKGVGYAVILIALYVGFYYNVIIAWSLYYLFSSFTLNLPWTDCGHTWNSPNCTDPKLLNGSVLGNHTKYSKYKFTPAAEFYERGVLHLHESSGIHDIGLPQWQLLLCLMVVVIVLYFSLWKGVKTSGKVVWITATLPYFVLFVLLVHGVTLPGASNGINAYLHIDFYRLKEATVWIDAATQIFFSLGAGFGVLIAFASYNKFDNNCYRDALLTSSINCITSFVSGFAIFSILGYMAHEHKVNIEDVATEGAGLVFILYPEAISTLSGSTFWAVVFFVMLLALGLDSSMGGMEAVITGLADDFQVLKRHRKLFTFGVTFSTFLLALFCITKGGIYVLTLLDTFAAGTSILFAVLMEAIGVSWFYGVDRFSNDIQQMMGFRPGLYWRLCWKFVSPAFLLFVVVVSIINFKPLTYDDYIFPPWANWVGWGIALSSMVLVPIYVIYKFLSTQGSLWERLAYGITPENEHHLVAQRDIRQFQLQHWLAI

[4] = target: β1-adrenergic receptor (Homo sapiens, UniProt P08588); experiment: in vitro selectivity panel, β1-adrenergic receptor; type: binding
β1-adrenergic receptor, sequence (P08588 whole entry): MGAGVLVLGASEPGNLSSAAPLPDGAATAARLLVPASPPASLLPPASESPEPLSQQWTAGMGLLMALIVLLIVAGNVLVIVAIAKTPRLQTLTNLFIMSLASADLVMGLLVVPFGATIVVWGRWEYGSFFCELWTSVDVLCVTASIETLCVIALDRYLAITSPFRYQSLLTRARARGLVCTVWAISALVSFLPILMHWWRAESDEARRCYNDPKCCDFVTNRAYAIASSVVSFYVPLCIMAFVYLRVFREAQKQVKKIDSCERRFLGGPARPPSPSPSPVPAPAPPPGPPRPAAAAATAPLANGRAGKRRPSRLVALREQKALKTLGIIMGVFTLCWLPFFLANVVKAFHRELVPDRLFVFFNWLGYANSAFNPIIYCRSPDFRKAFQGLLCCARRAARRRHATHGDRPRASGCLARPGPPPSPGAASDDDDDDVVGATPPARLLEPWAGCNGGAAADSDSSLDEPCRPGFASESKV
Method: (§1) The in vitro selectivity profile of two representative subject compounds, (3) and (1), are also tested against a panel of other receptors, including the M1 receptor, Histamine H1 receptor, sigma-1 (σ1) receptor, β1-adrenergic receptor, and dopamine D2 receptor. Representative results are listed below in Table III: […]

[5] = target: dopamine D2 receptor (Homo sapiens, UniProt P14416); experiment: in vitro selectivity panel, dopamine D2 receptor; type: binding
dopamine D2 receptor, sequence (P14416 whole entry): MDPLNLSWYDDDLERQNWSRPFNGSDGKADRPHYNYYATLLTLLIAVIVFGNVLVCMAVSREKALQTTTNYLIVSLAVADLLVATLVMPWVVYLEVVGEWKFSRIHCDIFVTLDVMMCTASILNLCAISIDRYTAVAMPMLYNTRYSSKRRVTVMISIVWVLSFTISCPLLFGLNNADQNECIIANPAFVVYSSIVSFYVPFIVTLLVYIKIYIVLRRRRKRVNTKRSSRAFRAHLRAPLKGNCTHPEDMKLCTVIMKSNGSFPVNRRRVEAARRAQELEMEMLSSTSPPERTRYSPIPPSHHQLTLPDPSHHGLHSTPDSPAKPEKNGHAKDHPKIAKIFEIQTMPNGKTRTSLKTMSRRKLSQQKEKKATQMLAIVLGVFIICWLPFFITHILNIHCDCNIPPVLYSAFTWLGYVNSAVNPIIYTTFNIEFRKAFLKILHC
Method: as §1

[6] = target: 5-HT (Homo sapiens, UniProt P31645); experiment: cell-based; details: own compounds tested as racemic mixtures of enriched diastereomers
5-HT, sequence (P31645 whole entry): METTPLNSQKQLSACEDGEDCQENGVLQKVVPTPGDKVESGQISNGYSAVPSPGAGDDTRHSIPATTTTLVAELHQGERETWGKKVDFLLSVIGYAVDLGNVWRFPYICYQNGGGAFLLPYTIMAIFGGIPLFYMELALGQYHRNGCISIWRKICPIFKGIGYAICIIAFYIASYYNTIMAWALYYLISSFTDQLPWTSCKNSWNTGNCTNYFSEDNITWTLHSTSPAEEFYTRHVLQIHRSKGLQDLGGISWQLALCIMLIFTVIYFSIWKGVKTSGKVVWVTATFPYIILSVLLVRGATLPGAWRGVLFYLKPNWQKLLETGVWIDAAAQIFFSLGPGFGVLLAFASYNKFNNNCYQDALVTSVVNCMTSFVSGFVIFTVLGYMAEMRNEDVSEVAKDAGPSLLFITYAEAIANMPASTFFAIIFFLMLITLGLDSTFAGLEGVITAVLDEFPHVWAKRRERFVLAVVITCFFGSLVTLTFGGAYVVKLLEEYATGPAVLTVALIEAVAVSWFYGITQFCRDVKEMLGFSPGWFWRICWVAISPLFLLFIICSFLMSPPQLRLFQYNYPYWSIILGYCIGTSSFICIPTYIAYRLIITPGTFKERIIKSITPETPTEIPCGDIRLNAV

[7] = target: Histamine H1 receptor (Homo sapiens, UniProt P35367); experiment: in vitro selectivity panel, Histamine H1 receptor; type: binding
Histamine H1 receptor, sequence (P35367 whole entry): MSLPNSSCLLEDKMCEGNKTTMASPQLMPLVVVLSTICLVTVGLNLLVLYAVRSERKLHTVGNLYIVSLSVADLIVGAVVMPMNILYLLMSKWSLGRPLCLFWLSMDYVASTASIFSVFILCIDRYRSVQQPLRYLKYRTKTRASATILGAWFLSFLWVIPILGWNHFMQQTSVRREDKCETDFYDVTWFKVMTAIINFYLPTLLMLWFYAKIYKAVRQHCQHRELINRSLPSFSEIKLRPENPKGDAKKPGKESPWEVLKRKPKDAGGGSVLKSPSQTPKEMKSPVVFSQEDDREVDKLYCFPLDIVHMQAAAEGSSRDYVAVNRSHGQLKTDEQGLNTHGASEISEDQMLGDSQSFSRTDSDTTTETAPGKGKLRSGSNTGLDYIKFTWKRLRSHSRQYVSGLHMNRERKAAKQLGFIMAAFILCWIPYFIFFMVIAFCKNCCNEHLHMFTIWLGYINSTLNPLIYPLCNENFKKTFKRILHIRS
Method: as §1

[8] = target: T1, DAT (SLC6A3) (Homo sapiens, UniProt Q01959); experiment: in vitro inhibition profile, IC50 of DAT (uptake assay); type: cell-based
T1 construct: expressed in transfected cells
T1 sequence (Q01959 whole entry): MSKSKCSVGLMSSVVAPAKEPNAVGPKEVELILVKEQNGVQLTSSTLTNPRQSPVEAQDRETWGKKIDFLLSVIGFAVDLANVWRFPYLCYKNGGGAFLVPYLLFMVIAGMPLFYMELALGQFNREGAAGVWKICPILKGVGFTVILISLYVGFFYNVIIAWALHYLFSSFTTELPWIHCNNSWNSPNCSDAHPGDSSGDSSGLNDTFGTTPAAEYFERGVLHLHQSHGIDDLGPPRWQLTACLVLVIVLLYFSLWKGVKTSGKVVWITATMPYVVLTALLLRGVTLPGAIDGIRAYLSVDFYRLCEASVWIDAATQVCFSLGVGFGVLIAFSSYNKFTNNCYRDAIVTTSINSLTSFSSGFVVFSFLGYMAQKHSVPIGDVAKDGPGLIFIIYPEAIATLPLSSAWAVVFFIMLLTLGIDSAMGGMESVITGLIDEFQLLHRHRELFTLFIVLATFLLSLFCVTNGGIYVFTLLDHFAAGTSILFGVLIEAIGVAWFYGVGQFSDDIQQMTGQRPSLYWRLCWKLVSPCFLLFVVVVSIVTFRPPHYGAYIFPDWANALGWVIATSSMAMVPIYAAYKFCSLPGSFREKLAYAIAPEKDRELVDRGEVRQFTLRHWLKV
Method: Before the assay, cells expressing DAT are washed once with KRH and equilibrated for 5 min. The cells may be assayed in 24-well plates and incubated for 2-5 min. with tritiated amines. Nontransported inhibitors were preincubated for 5 min, and substrates were applied together with the tritiated substrate.
Experiments to determine the ionic requirements for DAT-mediated uptake are done in KRH buffer, substituting LiCl or choline Cl for NaCl (sodium-dependence) or substituting D-gluconates for NaCl and KCl, and Ca(NO3)2 for CaCl2 (chloride dependence). Cells are washed twice with sodium- or chloride-free KRH before the assay (each wash step at least 5 min). In all transport assays, incubation periods and substrate concentrations are chosen such that uptake obeyed first-order rate kinetics.
Vmax values for amine uptake in stable transfected DAT-cells are determined in parallel assays for at least two amines per experiment and expressed as relative values.

[9] = target: T2, M1 receptor (Homo sapiens, UniProt P11229); experiment: in vitro selectivity panel, M1 receptor; type: binding
T2 sequence (P11229 1-460): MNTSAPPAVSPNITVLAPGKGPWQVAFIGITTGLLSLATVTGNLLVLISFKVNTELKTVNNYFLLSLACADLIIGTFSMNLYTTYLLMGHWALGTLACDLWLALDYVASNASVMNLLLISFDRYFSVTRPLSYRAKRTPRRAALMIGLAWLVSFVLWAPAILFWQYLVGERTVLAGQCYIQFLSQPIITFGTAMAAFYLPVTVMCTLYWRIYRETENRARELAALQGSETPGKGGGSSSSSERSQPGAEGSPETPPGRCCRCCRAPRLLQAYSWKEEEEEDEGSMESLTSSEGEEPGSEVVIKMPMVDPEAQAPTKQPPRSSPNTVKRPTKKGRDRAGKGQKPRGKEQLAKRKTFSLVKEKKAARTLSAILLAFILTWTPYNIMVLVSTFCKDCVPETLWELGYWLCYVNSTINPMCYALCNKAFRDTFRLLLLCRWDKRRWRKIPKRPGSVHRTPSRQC
Method: as §1

[10] = system: rat; experiment: acute single-dose toxicology in rat; type: in vivo
Method: An in vivo evaluation was carried out to determine the maximum tolerated dose of numerous test compounds in rat. The compounds were administered i.v., and the animals were then observed for 72 hours.
Briefly, experimental rats, in groups of 5 animals, were administered with various doses of respective inhibitors (e.g. 30, 90, 120, and 200 mg/kg), and the observed toxicological effects were recorded.

[11] = target: T3, DAT (h) (Homo sapiens, UniProt Q01959); experiment: cell-based; type: cell-based; details: human; nM; read-out: DAT (h) in vitro functional uptake
T3 construct: expressed in transfected cells
T3 sequence (Q01959 whole entry): as the sequence (Q01959 whole entry) above
Method: (§2) Functional activity of the compounds was determined in vitro in cellular assays using recombinant human cell lines.

[12] = target: T4, NET (h) (Homo sapiens, UniProt P23975); experiment: cell-based; type: cell-based; details: human; nM; read-out: NET (h) in vitro functional uptake
T4 construct: expressed in transfected cells; host or cells: MDCK
T4 sequence (P23975 whole entry): as the sequence (P23975 whole entry) above
Method: as §2

DAT (r), sequence (P23977 whole entry): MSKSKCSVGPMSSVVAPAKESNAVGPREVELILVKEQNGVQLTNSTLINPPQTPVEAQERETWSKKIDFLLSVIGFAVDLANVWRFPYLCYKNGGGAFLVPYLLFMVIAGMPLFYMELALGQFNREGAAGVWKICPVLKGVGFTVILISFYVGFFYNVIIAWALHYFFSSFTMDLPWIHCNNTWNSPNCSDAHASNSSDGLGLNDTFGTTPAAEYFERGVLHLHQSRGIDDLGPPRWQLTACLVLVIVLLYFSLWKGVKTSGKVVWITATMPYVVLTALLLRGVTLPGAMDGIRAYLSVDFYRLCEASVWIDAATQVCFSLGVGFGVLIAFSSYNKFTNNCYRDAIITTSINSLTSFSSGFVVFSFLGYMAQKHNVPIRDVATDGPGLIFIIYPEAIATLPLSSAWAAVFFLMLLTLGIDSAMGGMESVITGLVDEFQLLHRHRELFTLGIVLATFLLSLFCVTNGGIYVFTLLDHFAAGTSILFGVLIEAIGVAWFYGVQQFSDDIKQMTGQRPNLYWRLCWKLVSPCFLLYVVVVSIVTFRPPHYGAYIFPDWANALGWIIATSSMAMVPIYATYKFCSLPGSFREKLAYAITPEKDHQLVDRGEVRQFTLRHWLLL

For `CC1CCN(CC2(c3ccc(Cl)cc3)CCC2)CC1COc1ccc(C(F)(F)F)cc1` (stereo not drawn) [(1)], the “7 day multidose oral toxicology, symptoms” value ([1]; Sprague-Dawley rats n = 6 (3M/3F), oral 100 mg/kg/day, 100 mg/kg/day) was “did not display any significant symptoms”, the “7 day multidose oral toxicology, self-mutilation (number of animals)” value ([1]; n = 6, oral 200 mg/kg/day) was 1 self-mutilation and the “7 day multidose oral toxicology, self-mutilation (number of animals)” value ([1]; n = 6, oral 400 mg/kg/day) was 3 self-mutilation. For the same compound, the EC50 [2] was 80 nM, the IC50 [3] was 175 nM and the “β1-adrenergic (nM)h” value [4] was 5000 nM. For the same compound, the “D2 (nM)h” value [5] was 1000 nM, the IC50 [6] was 1200 nM and the “Histamine H1 (nM)h” value [7] was 5000 nM. For the same compound, the IC50 [8] was 1 nM, the “M1 (nM)h” value [9] was 5000 nM and the “acute single dose toxicology, observed symptoms” value ([10]; rat (n = 5), 200 mg/kg, i.v., observed 72 hours) was “decreased grip strength, and slight depression”. The “acute single dose toxicology, observed symptoms” value ([10]; rat, doses below 120 mg/kg) was “no significant observed symptoms”, the EC50 [11] was 1 nM and the EC50 [12] was 1000 nM.
